From US20110142866A1, “PEPTIDE ANALOGUES AND CONJUGATES THEREOF” (Eldrug S.A., priority 2007, published 2011)
“Also recorded” adds a separate entry of the source. Positions of bridges follow the written chain, without caps; N, C: chain ends. No end group written: not given here.

What was measured:
MBP72-85 induced EAE = assay: Induction-inhibition of MBP-EAE in Lewis rats; format: in vivo; details: co-injection (500 μg) with MBP72-85 (25 μg)
[1] = test system: IFN-γ secretion by T cells; assay: IFN-γ ELISpot of spleen cells from immunized mice; format: in vivo, SJL/J mice; details: for cross-reaction of IFN-γ producing T cells with native MBP87-99 peptide: recall peptide native MBP87-99
Procedure: (§1) Female 6-8 week old SJL/J mice used in all experiments, were purchased from Walter and Eliza Hall Institute (VIC Australia) and housed at the Biological Research Laboratory at Burnet Institute at Austin, Heidelberg, Australia. SJL/J mice were immunized twice on days 0, 14 intradermally (base of tail) with 50 μg MBP83-99 peptide analogue-KLH-reduced mannan.
(§2) ELISpot analyses specific T cell responses to antigens by detecting the secretion of specific cytokines. Spleen cells from immunized SJL/J mice were isolated 14 days after immunization and assessed by ELISpot for IFN-γ, IL-4 or IL-10 secretion by T cells. IFN-γ ELISpot assay was performed on MultiScreen-IP Filter Plate (MAIP S4510) with hydrophobic PVDF filters (Millipore, UK) while IL-4 and IL-10 ELISpot was performed on MultiScreen-HA Filter Plate (MAHA S4510) with mixed cellulose esters filters (Millipore, UK). MAIP S4510 plates were pre-wet with 50 μl of 70% ethanol, washed 5 times with 200 μl sterile PBS and coated with 70 μl of 5 μg/ml anti-IFN-γ capture antibody, AN18 (Mabtech, Australia) in PBS and left to incubate at 4° C. O/N. While 70 μl of 5 μg/ml anti-IL-4 and anti-IL-10 capture antibody (Mabtech, Australia) was added directly to MAHA S4510 plates and incubated at 4° C. O/N without 70% ethanol treatment. Following 5 washes with PBS, plates were blocked by adding 200 μl of culture media (supplemented with 2.5% FCS) and incubated for 2 hours at 37° C. The blocking media was discarded and 10 μg/ml recall peptides (MBP83-99 peptide analogues not conjugated to KLH-reduced mannan) were added into each defined well. Con A (1.0 μg/ml; IL-4 and IFN-γ) or LPS (1.0 μg/ml; IL-10) were used as an internal positive controls and no peptide was used as negative control. Triplicate wells were set up for each condition. 5×10^5 spleen cells in 100 μl culture media were seeded into each well and incubated for 18 hours for IFN-γ, 24 hours for IL-4 and 48 hours for IL-10 at 37° C. Plates were washed 5 times PBS/0.05% Tween 20 and 5 times PBS and incubated for 2 hours at RT with anti-murine IFN-γ, IL-4 or IL-10 monoclonal antibody-biotin. Plates were washed and streptavidin-ALP was added at 1.0 μg/ml and incubated for 2.0 hours at RT. Spots of activity were detected using a colorimetric AP kit (Biorad, Hercules, Calif. USA) and counted using an AID ELISpot plate reader (Autoimmun Diagnostika GmbH, Germany). Data are presented as mean spot forming units (sfu) per 0.5×10^6 cells +/−standard error of the mean (SEM).
(§3) MBP87-99, [R^91, A^96]MBP87-99 or [A^91, A^96]MBP87-99 peptides were dissolved in PBS and emulsified in an equal volume of complete Freund's adjuvant (CFA) which contained 1.0 mg/ml of heat killed Mycobacterium tuberculosis H37RA (Sigma, Victoria, Australia). SJL/J mice were given one subcutaneous injection containing 50 μg peptide into the base of tail.
(§4) SJL/J mice were immunized twice on days 0 and 14 intradermally (base of tail) with 50 μg MBP87-99-KLH-reduced mannan, [R^91, A^96]MBP87-99-KLH-reduced mannan or [A^91, A^96]MBP87-99-KLH-reduced mannan conjugates.
(§5) ELISpot detects specific T cell responses to antigens by measuring the secretion of specific cytokines from individual cells. Spleen cells from immunized SJL/J mice were isolated 28 days after CFA immunization or 14 days after the last immunization with reduced mannan-peptides and assessed by ELISpot for IFN-γ and IL-4 secretion by T cells. IFN-γ ELISpot assay was performed on MultiScreen-IP Filter Plate (MAIP S4510) with hydrophobic PVDF filters (Millipore, UK), while IL-4 ELISpot assays were performed on MultiScreen-HA Filter Plate (MAHA S4510) with mixed cellulose esters filters (Millipore, UK). MAIP S4510 plates were pre-weted with 50 μl of 70% ethanol, washed 5 times with 200 μl of sterile phosphate-buffered saline (PBS) and coated with 70 μl of 5 μg/ml anti-IFN-γ capture antibody, AN18 (Mabtech, Australia) in PBS and incubated O/N at 4° C. […]

[2] = test system: IL-4 secretion by T cells; assay: IL-4 ELISpot of spleen cells from immunized mice; format: in vivo, SJL/J mice
Procedure: as §1, §2, §3, §4, §5

[3] = test system: respective peptides conjugated to BSA or KLH; assay: ELISA total IgG antibody responses to the respective peptide; format: in vivo, SJL/J mice
Procedure: (§6) Blood was collected and sera isolated from mice prior to and 4 weeks after immunization with CFA or 14 days after the last immunization with reduced mannan conjugates. MBP87-99 or [A^91, A^96]MBP87-99 peptides conjugated to BSA or KLH were coated onto polyvinyl chloride (PVC) microtiter plates at 10 μg/ml in 0.2 M NaHCO3 buffer, pH 9.6, 0/N at 4° C. Non-specific binding was blocked with 2% BSA for 1.0 h at RT. After washing (0.05 Tween 20/PBS), serial dilutions of sera were added and incubated for a further 2 h at RT. The plates were washed and bound antibody was detected using HRP-conjugated sheep anti-mouse antibody (1/1000 dilution in PBS) (Amersham, UK) and developed using 2,2′-azino-di(3-ethylbenzthiazoline)6-sulfonic acid (ABTS) (Sigma, UK). Absorbance at 405 nm was recorded using a Fluostar Optima microplate reader (BMG labtech, Offenburg, Germany).
(§7) ELISpot assays for IFN-γ and IL-4 secretion by T cells and ELISA assays for binding of sera to native MBP protein or peptide were carried out as previously described^3, 4, 20, 21. Mean values were compared using the Student's two-tailed t-test. P value threshold of p<0.01 indicates a statistically significant difference.

native MBP87-99 peptide = assay: ELISA cross reaction of sera with native MBP87-99 peptide; format: in vivo; details: 1/500 and 1/1,000 sera dilutions
Procedure: as §6, §7

[4] = 50 μg peptide conjugated to reduced mannan, two intradermal injections, spleen cells 14 days post-immunization
[5] = 50 μg peptide emulsified in CFA, one injection, spleen cells 28 days
[6] = peptide conjugated to reduced mannan

Val^87-His-Phe-Phe-Arg^91-Asn-Ile-Val-Thr-Ala^96-Arg-Thr-Pro^99 [cyclo(87-99)[Arg^91, Ala^96] MBP87-99]
inhibition of EAE (MBP72-85 induced EAE): strong inhibitor of EAE | inhibition of EAE (MBP72-85 induced EAE; listed as cyclo(87-99)[Arg^91,Ala^96]MBP87-99): completely prevented the induction of EAE

VHFFANIVTARTP [[A^91, A^96]MBP87-99]
IFN-γ secreting T cells (in words) [1, 4]: no IFN-γ was detected | IFN-γ secreting T cells (in words) [1, 5]: strong levels | cross-reaction of IFN-γ producing T cells with native MBP87-99 peptide [1, 6]: did not cross-react | cross-reaction of IFN-γ producing T cells with native MBP87-99 peptide ([1]; peptide emulsified in CFA): did not cross-react | IL-4 secreting T cells (in words) [2, 4]: high levels | IL-4 secreting T cells (in words) [2, 5]: high levels | IgG antibody responses (in words) ([3]; peptide emulsified in CFA): No IgG antibody levels | cross-reaction of antibodies with native MBP87-99 peptide (native MBP87-99 peptide; [6]): did not cross-react | cross-reaction of antibodies with native MBP87-99 peptide (native MBP87-99 peptide; peptide emulsified in CFA): did not cross-react

cyclo, head-to-tail, VHFFANIVTARTP (VHFFXNIVTXRTP; cyclised or stapled) [cyclo(87-99)[A^91, A^96]MBP87-99]
IFN-γ secreting T cells (in words) [1, 4]: reduce IFN-γ production | IFN-γ secreting T cells (in words) [1, 5]: reduce IFN-γ production | decrease of IFN-γ compared to linear MBP87-99 conjugated to reduced mannan [1, 6]: ~50% | decrease of IFN-γ compared to linear MBP87-99 emulsified in CFA [1, 6]: ~70% | decrease of IFN-γ compared to the same peptide emulsified in CFA [1, 6]: ~50% | cross-reaction of IFN-γ producing T cells with native MBP87-99 peptide [1, 6]: did not cross-react | cross-reaction of IFN-γ producing T cells with native MBP87-99 peptide ([1]; peptide emulsified in CFA): did not cross-react | IL-4 secreting T cells (in words) [2, 4]: moderate levels | IL-4 secreting T cells (in words) [2, 5]: moderate levels | IgG antibody responses (in words) [3, 6]: higher levels | IgG antibody responses (in words) ([3]; peptide emulsified in CFA): no IgG antibodies | cross-reaction of antibodies with native MBP87-99 peptide (native MBP87-99 peptide; [6]): did not react | cross-reaction of antibodies with native MBP87-99 peptide (native MBP87-99 peptide; peptide emulsified in CFA): did not react

VHFFRNIVTARTP [[R^91, A^96]MBP87-99]
decrease of IFN-γ relative to native MBP87-99 [1, 6]: 70% | decrease of IFN-γ relative to native MBP87-99 ([1]; peptide emulsified in CFA): 30% | IL-4 secreting T cells (in words) [2, 4]: very high | IL-4 secreting T cells (in words) [2, 5]: low levels | inhibition of EAE (MBP72-85 induced EAE; listed as [Arg^91, Ala^96]MBP87-99): completely prevented the development of EAE | inhibition of EAE (MBP72-85 induced EAE; listed as [Arg^91,Ala^96]MBP87-99): completely prevented the induction of EAE

Val-His-Phe-Phe-Lys^91-Asn-Ile-Val-Thr-Ala^96-Arg-Thr-Pro^99 (VHFFKNIVTARTP; lactam 5-C) [cyclo(91-99)[Ala^96] MBP87-99]
inhibition of EAE (MBP72-85 induced EAE): low inhibitory activity

VHFFKNIVTPRTP [MBP87-99, reference compound]
IFN-γ secreting T cells (in words) [1, 4]: high levels | IFN-γ secreting T cells (in words) [1, 5]: high levels | IL-4 secreting T cells (in words) [2, 4]: did not induce; also recorded: No detectable | IL-4 secreting T cells (in words) [2, 5]: did not induce; also recorded: No detectable | IgG antibody responses (in words) [3, 6]: higher levels | IgG antibody responses (in words) ([3]; peptide emulsified in CFA): very low levels and Low
